Experimental data taken from US9493444B2 (Merck Patent GmbH, priority 2012, dated 2016).

What follows are compounds tested on Wnt pathway (TCF-dependent transcription in HEK293 luciferase reporter cell line with ER-DSH construct) (assay: Cellular assay for Wnt pathway activity (luciferase reporter)). Conditions: Homo sapiens; Wnt pathway inhibition, HEK293 luciferase reporter cells (ER-DSH, TCF promoter), 24 hours incubation, estrogen-induced.
Assay type: cell-based
Method: 1. Cellular Assay for Wnt Pathway Activity
Compounds were tested for their Wnt pathway inhibitory activities using a luciferase reporter cell based assay. A HEK293 luciferase reporter cell line was used which contained an Estrogen Receptor-Dishevelled (ER-DSH) construct and a T-Cell Factor (TCF) dependent gene promoter luciferase construct.
Compounds, in concentrations from 30 μM down to 1 nM, were incubated for 24 hours on the cells, which were induced for TCF-dependent transcription by the addition of estrogen (10). Luciferase activities were determined using the ONE GLO Luciferase Assay System (Promega) and the ENVISION microplate reader (Perkin Elmer). For analysis, the obtained data were normalized against the untreated vehicle control and fitted for determination of the IC50 values using the Assay Explorer software (Accelrys).
`CC(=O)N(C)CCNc1cncc(Oc2ccc(-c3cncc(S(C)(=O)=O)c3)cc2)n1` [Compound 275, N-(2-{6-[4-(5-Methane-sulfonyl-pyridin-3-yl)-phenoxy]-pyrazin-2-ylamino}-ethyl)-N-methyl-acetamide] gave an IC50 of 1000 to 10000 nM. In the case of `CC(=O)N(C)CCN(C)c1cncc(Oc2ccc3c(cnn3C)c2)n1` [Compound 317, N-Methyl-N-(2-{methyl-[6-(1-methyl-1H-indazol-5-yloxy)-pyrazin-2-yl]-amino}-ethyl)-acetamide], the IC50 is reported as under 200 nM. Compound `CC(=O)N(C)CCN(C)c1cncc(Oc2ccc(N3CCN(c4ccncc4)CC3)cc2)n1` [Compound 132, N-Methyl-N-[2-(methyl-{6-[4-(4-pyridin-4-yl-piperazin-1-yl)-phenoxy]-pyrazin-2-yl}-amino)-ethyl]-acetamide] has an IC50 of under 200 nM. `CC(=O)N(C)CCN(C)c1cncc(Oc2ccc(-c3ccc(CCNC(=O)CCCCCNC(=O)CCCCC4SCC5NC(=O)NC54)cc3)cc2)n1` (stereo not drawn) [Compound 271, 6-[5-(2-Oxo-hexahydro-thieno[3,4-d]imidazol-6-yl)-pentanoyl-amino]-hexanoic acid {2-[4′-(6-{[2-(acetyl-methyl-amino)-ethyl]-methyl-amino}-pyrazin-2-yloxy)-biphenyl-4-yl]-ethyl}-amide] showed an IC50 of under 200 nM. With `COc1cc(-c2ccc(Oc3cncc(N(C)CCN(C)C(C)=O)n3)cc2)ccn1` [Compound 194, N-[2-({6-[4-(2-Methoxy-pyridin-4-yl)-phenoxy]-pyrazin-2-yl}-methyl-amino)-ethyl]-N-methyl-acetamide] the IC50 was 200 to 1000 nM. `CC(=O)N(C)CCCN(C)c1cncc(Oc2ccc(F)cc2)n1` [Compound 83, N-(3-{[6-(4-Fluoro-phenoxy)-pyrazin-2-yl]-methyl-amino}-propyl)-N-methyl-acetamide] was tested, and the IC50 was 1000 to 10000 nM. Compound `CC(=O)N(C)CCN(C)c1cncc(Oc2ccc(-c3ccc(N4CCOCC4)nc3)cc2F)n1` [Compound 239, N-[2-({6-[2-Fluoro-4-(6-morpholin-4-yl-pyridin-3-yl)-phenoxy]-pyrazin-2-yl}-methyl-amino)-ethyl]-N-methyl-acetamide] has an IC50 of under 200 nM. For `CC(=O)N(C)CCN(C)c1cncc(Oc2ccc(-c3ccc(=O)[nH]n3)cc2)n1` [Compound 151, N-Methyl-N-[2-(methyl-{6-[4-(6-oxo-1,6-dihydro-pyridazin-3-yl)-phenoxy]-pyrazin-2-yl}-amino)-ethyl]-acetamide], the IC50 was 200 to 1000 nM. In the case of `CC(=O)N(C)CCN(C)c1cncc(Oc2ccc(-c3cc4ccccc4cn3)cc2)n1` [Compound 166, N-(2-{[6-(4-Isoquinolin-3-yl-phenoxy)-pyrazin-2-yl]-methyl-amino}-ethyl)-N-methyl-acetamide], the IC50 is reported as 200 to 1000 nM. With `CC(=O)N(C)CCN(C)c1cncc(Oc2ccc(-c3cccnc3N)cc2)n1` [Compound 177, N-[2-({6-[4-(2-Amino-pyridin-3-yl)-phenoxy]-pyrazin-2-yl}-methyl-amino)-ethyl]-N-methyl-acetamide] the IC50 was under 200 nM. In the case of `CC(=O)N(C)CCNc1cncc(Oc2ccc(F)cc2)n1` [Compound 66, N-{2-[6-(4-Fluoro-phenoxy)-pyrazin-2-ylamino]-ethyl}-N-methyl-acetamide], the IC50 is reported as 1000 to 10000 nM. Compound `CC(=O)Oc1cnc(-c2ccc(Oc3cncc(N(C)CCN(C)C(C)=O)n3)cc2)nc1` [Compound 155, Acetic acid 2-[4-(6-{[2-(acetyl-methyl-amino)-ethyl]-methyl-amino}-pyrazin-2-yloxy)-phenyl]-pyrimidin-5-yl ester] has an IC50 of 1000 to 10000 nM. Compound `CC(=O)N(C)CCN(C)c1cncc(Oc2ccc(S(C)(=O)=O)cc2)n1` [Compound 100, N-(2-{[6-(4-Methane-sulfonyl-phenoxy)-pyrazin-2-yl]-methyl-amino}-ethyl)-N-methyl-acetamide] has an IC50 of 200 to 1000 nM. In the case of `CC(=O)N(C)CCSc1cncc(Oc2ccc(-c3ccc(C)cn3)cc2)n1` [Compound 153, N-Methyl-N-(2-{6-[4-(5-methyl-pyridin-2-yl)-phenoxy]-pyrazin-2-ylsulfanyl}-ethyl)-acetamide], the IC50 is reported as under 200 nM. In the case of `CC(=O)N(C)CCN(C)c1cncc(Oc2ccc(S(N)(=O)=O)cc2)n1` [Compound 101, N-Methyl-N-(2-[methyl-[6-(4-sulfamoyl-phenoxy)-pyrazin-2-yl]-amino}-ethyl)-acetamide], the IC50 is reported as 200 to 1000 nM. Compound `CNCc1ccc(-c2ccc(Oc3cncc(N(C)CCN(C)C(C)=O)n3)cc2)cn1` [Compound 265, N-Methyl-N-[2-(methyl-{6-[4-(6-methylaminomethyl-pyridin-3-yl)-phenoxy]-pyrazin-2-yl}-amino)-ethyl]-acetamide] has an IC50 of under 200 nM. `CC(=O)N(C)CCN(C)c1cncc(Oc2ccc(-c3ccnnc3)cc2)n1` [Compound 261, N-Methyl-N-(2-{methyl-[6-(4-pyridazin-4-yl-phenoxy)-pyrazin-2-yl]-amino}-ethyl)-acetamide] was tested, and the IC50 was under 200 nM. Work on `COc1ccc(Oc2cncc(N(C)CCN(C)C(=O)CC(C)(C)C)n2)cc1` [Compound 32, N-(2-{[6-(4-Methoxy-phenoxy)-pyrazin-2-yl]-methyl-amino}-ethyl)-3,3-N-trimethyl-butyramide] yielded an IC50 of 1000 to 10000 nM. In the case of `CCN(CCN(C)c1cncc(Oc2cccc(F)c2)n1)C(C)=O` [Compound 82, N-Ethyl-N-(2-{[6-(3-fluoro-phenoxy)-pyrazin-2-yl]-methyl-amino}-ethyl)-acetamide], the IC50 is reported as 200 to 1000 nM. `CN(C=O)CCNc1cncc(Oc2ccc(-c3cccc(N4CCN(C)CC4)n3)cc2)n1` [Compound 311, N-Methyl-N-[2-(6-{4-[6-(4-methyl-piperazin-1-yl)-pyridin-2-yl]-phenoxy}-pyrazin-2-ylamino)-ethyl]-formamide] was tested, and the IC50 was 200 to 1000 nM. Work on `CC(=O)N(C)CCN(C)c1cncc(Oc2ccc(C(=O)N3CCCC(c4cccn4C)=N3)cc2)n1` [Compound 126, N-Methyl-N-{2-[methyl-(6-{4-[3-(1-methyl-1H-pyrrol-2-yl)-5,6-dihydro-4H-pyridazine-1-carbonyl]-phenoxy}-pyrazin-2-yl)-amino]-ethyl} acetamide] yielded an IC50 of 1000 to 10000 nM. `CC(=O)N(C)CCN(C)c1cncc(Oc2ccc(C(N)=O)cc2)n1` [Compound 143, 4-(6-{[2-(Acetyl-methyl-amino)-ethyl]-methyl-amino}-pyrazin-2-yloxy)-benzamide] gave an IC50 of 200 to 1000 nM. For `CNCCN(C)c1cncc(Oc2ccc(-c3cc(C(F)(F)F)ccn3)cc2)n1` [Compound 120, N,N′-Dimethyl-N-{6-[4-(4-trifluoro-methyl-pyridin-2-yl)-phenoxy]-pyrazin-2-yl}-ethane-1,2-diamine], the IC50 was 1000 to 10000 nM. `CC(=O)Nc1cccc(-c2ccc(Oc3cncc(N(C)CCN(C)C(C)=O)n3)cc2)n1` [Compound 171, N-[2-({6-[4-(6-Acetylamino-pyridin-2-yl)-phenoxy]-pyrazin-2-yl}-methyl-amino)-ethyl]-N-methyl-acetamide] showed an IC50 of under 200 nM. `CCN(CCN(CC)c1cncc(Oc2ccc(OC)cc2)n1)C(C)=O` [Compound 103, N-Ethyl-N-(2-{ethyl-[6-(4-methoxy-phenoxy)-pyrazin-2-yl]-amino}-ethyl)-acetamide] showed an IC50 of 200 to 1000 nM. `CC(=O)N(C)CCN(C)c1cncc(O[C@H]2C[C@H]3CC[C@@H]2C3)n1` [Compound 208, N-(2-{[6-((1R,2S,4S)-Bicyclo[2.2.1]hept-2-yloxy)-pyrazin-2-yl]-methyl-amino}-ethyl)-N-methyl-acetamide] was tested, and the IC50 was 1000 to 10000 nM. Compound `C#CCOC(=O)Nc1ccc(-c2ccc(Oc3cncc(N(C)CCN(C)C(C)=O)n3)cc2)nc1` [Compound 244, {6-[4-(6-{[2-(Acetyl-methyl-amino)-ethyl]-methyl-amino}-pyrazin-2-yloxy)-phenyl]-pyridin-3-yl}-carbamic acid prop-2-ynyl ester] has an IC50 of under 200 nM. `CC(=O)N(C)CCN(C)c1cncc(Oc2ccc(-c3ncc(O)cn3)cc2)n1` [Compound 165, N-[2-({6-[4-(5-Hydroxy-pyrimidin-2-yl)-phenoxy]-pyrazin-2-yl}-methyl-amino)-ethyl]-N-methyl-acetamide] gave an IC50 of 1000 to 10000 nM. Compound `CC(=O)N(C)CCN(C)c1cncc(Oc2ccc3[nH]ccc3c2)n1` [Compound 106, N-(2-{[6-(1H-Indol-5-yloxy)-pyrazin-2-yl]-methyl-amino}-ethyl)-N-methyl-acetamide] has an IC50 of 200 to 1000 nM. `CC(=O)N(C)CCN(C)c1cncc(Oc2ccc(-n3ccnc3)cc2)n1` [Compound 118] was tested, and the IC50 was under 200 nM. `CC(=O)N(C)CCN(C)c1cncc(Oc2ccc(-c3ccncc3)cc2)n1` [Compound 203, N-Methyl-N-(2-{methyl-[6-(4-pyridin-4-yl-phenoxy)-pyrazin-2-yl]-amino}-ethyl)-acetamide] was tested, and the IC50 was under 200 nM. For `CCN(CCN(C)c1cncc(Oc2ccc(F)cc2)n1)C(C)=O` [Compound 90, N-Ethyl-N-(2-{[6-(4-fluoro-phenoxy)-pyrazin-2-yl]-methyl-amino}-ethyl)-acetamide], the IC50 was under 200 nM. `CC(=O)N(C)CCN(C)c1cncc(Oc2ccc(-c3ccc([N+](=O)[O-])cn3)cc2)n1` [Compound 198, N-Methyl-N-[2-(methyl-{6-[4-(5-nitro-pyridin-2-yl)-phenoxy]-pyrazin-2-yl}-amino)-ethyl]-acetamide] was tested, and the IC50 was under 200 nM. `CC(=O)N(C)CCN(C)c1cncc(Oc2ccc(OC(F)(F)F)cc2)n1` [Compound 131, N-Methyl-N-(2-{methyl-[6-(4-trifluoro-methoxy)-pyrazin-2-yl]-amino}-ethyl)-acetamide] was tested, and the IC50 was under 200 nM. `CC(=O)N(C)CCCc1cncc(Oc2ccc(F)cc2)c1` [Compound 304, N-{3-[5-(4-Fluoro-phenoxy)-pyridin-3-yl]-propyl}-N-methyl-acetamide] showed an IC50 of 200 to 1000 nM. Work on `CC(=O)N(C)CCN(C)c1cncc(Oc2ccc(C(C)(C)C)cc2)n1` [Compound 85, N-(2-{[6-(4-tert-Butyl-phenoxy)-pyrazin-2-yl]-methyl-amino}-ethyl)-N-methyl-acetamide] yielded an IC50 of under 200 nM.
